Source: ChEMBL document CHEMBL1128724, “Unsaturated acyclic analogues of 2'-deoxyadenosine and thymidine containing fluorine: synthesis and biological activity” (J Med Chem, 1995)

What was measured:
L1210 = assay: Growth inhibition of murine leukemia L1210 cells.; type: functional, cell-based; details: Mus musculus
ATH-8 cell line [1] = assay: Inhibitory activity against HIV-1 in ATH8 cells; type: functional, cell-based; details: Homo sapiens
ATH-8 cell line [2] = assay: Inhibitory activity against HIV-1 in ATH8 cells; IA means Inactive; type: functional, cell-based, Homo sapiens

IC50 (L1210)	SMILES	other results
89 µM	Nc1ncnc2c1ncn2C(F)C#CCO (centres undefined)	
60 µM	Cc1cn(C/C=C(/F)CO)c(=O)[nH]c1=O	
	Nc1ncnc2c1ncn2C/C=C(/F)CO	IC50 (ATH-8 cell line [1]): 100 µM
	Nc1ncnc2c1ncn2C/C=C(\F)CO	IC50 (ATH-8 cell line [2]): Not Active
